The values that follow come from ChEMBL document CHEMBL1138374, “Arylsulfonamides as a new class of cannabinoid CB1 receptor ligands: identification of a lead and initial SAR studies” (Bioorg Med Chem Lett, 2007).

Data set [1] addresses T1, Cannabinoid receptor 1 (Homo sapiens, UniProt P21554). Briefly: Binding affinity to human recombinant CB1 receptor.
Data set [2] has as its target T1, Cannabinoid receptor 1. The data set is described as follows: Agonist activity at human recombinant CB1 receptor expressed in CHO cells by [35S]GTP-gamma-S binding assay. Type of data set: functional, cell-based.
The target in data set [3] is Cannabinoid receptor 2 (Homo sapiens, UniProt P34972). The data set is described as follows: Binding affinity to CB2 receptor.
The target of data set [4] is Cannabinoid receptor 1 (Mus musculus) (UniProt P47746). To be noted: Vas deferens; 0.1 uM.
Description: Agonist activity at CB1 receptor assessed as inhibition of electrically-induced twitch contraction amplitude in mouse vas deferens at 0.1 uM relative to WIN-55212-2
Data set [5] deals with Mus musculus. The data set is described as follows: Reduction of nociception in NMRI mouse during early phase (0 to 5 mins) at 10 mg/kg, ip by formalin test. Type of data set: functional. Also on record: scale not given: the % may be the effect or the level left. The following applies: route intraperitoneal.
The subject of data set [6] is Mus musculus. The data set is described as follows: Reduction of nociception in NMRI mouse during late phase (10 to 30 mins) at 30 mg/kg, ip by formalin test. It counts as functional. Also on record: scale not given: the % may be the effect or the level left. To be noted: route intraperitoneal.
Data set [7] concerns Mus musculus. The data set is described as follows: Reduction of nociception in NMRI mouse during early phase (0 to 5 mins) at 90 mg/kg, ip by formalin test. It counts as functional. The arrangement: scale not given: the % may be the effect or the level left. The following applies: route intraperitoneal.
In data set [8] the test system is Mus musculus. Briefly: Induction of hypokinesia with reduced postural tone NMRI mouse at 180 mg/kg, ip. To be noted: in vivo. Type of data set: organism-based. Also on record: dose 180 mg/kg, route intraperitoneal.
Data set [9] deals with Mus musculus. The data set is described as follows: Reduction of nociception in NMRI mouse during late phase (10 to 30 mins) at 90 mg/kg, ip by formalin test. Type of data set: functional. Also on record: scale not given: the % may be the effect or the level left. To be noted: route intraperitoneal.
The species entered for data set [10] is Homo sapiens.
Description: Selectivity for CB2 receptor over human recombinant CB1 receptor
Data set [11] relates to Mus musculus. The data set is described as follows: Reduction of nociception in NMRI mouse during early phase (0 to 5 mins) at 80 mg/kg, ip by formalin test. Type of data set: functional. The arrangement: scale not given: the % may be the effect or the level left. To be noted: route intraperitoneal.
In data set [12] the test system is Mus musculus. Briefly: Reduction of nociception in NMRI mouse during early phase (0 to 5 mins) at 30 mg/kg, ip by formalin test. The following applies: route intraperitoneal. It counts as functional. Also on record: scale not given: the % may be the effect or the level left.
In data set [13] the test system is Mus musculus. The data set is described as follows: Reduction of nociception in NMRI mouse during late phase (10 to 30 mins) at 10 mg/kg, ip by formalin test. The following applies: route intraperitoneal. It counts as functional. The arrangement: scale not given: the % may be the effect or the level left.
Data set [14] has as its system Mus musculus. Briefly: Reduction of nociception in NMRI mouse during late phase (10 to 30 mins) at 180 mg/kg, ip by formalin test. Type of data set: functional. Also on record: scale not given: the % may be the effect or the level left. To be noted: route intraperitoneal.
For data set [15], the target named is Cannabinoid receptor 1 (Mus musculus) (UniProt P47746). To be noted: Vas deferens.
Description: Agonist activity at CB1 receptor assessed as inhibition of electrically-induced twitch contraction amplitude in mouse vas deferens
Data set [16] has as its system Mus musculus. Briefly: Induction of hypokinesia NMRI mouse at 0.3 mg/kg, ip. It counts as organism-based. The arrangement: dose 0.3 mg/kg, route intraperitoneal. The following applies: in vivo.
In data set [17] the test system is Mus musculus. Briefly: Induction of hypotonia NMRI mouse at 0.3 mg/kg, ip. The following applies: in vivo. Also on record: dose 0.3 mg/kg, route intraperitoneal. Type of data set: organism-based.
The test system of data set [18] is Mus musculus. The data set is described as follows: Reduction of nociception in ip dosed NMRI mouse during late phase (10 to 30 mins). It counts as functional.

T1 sequence (P21554 whole entry): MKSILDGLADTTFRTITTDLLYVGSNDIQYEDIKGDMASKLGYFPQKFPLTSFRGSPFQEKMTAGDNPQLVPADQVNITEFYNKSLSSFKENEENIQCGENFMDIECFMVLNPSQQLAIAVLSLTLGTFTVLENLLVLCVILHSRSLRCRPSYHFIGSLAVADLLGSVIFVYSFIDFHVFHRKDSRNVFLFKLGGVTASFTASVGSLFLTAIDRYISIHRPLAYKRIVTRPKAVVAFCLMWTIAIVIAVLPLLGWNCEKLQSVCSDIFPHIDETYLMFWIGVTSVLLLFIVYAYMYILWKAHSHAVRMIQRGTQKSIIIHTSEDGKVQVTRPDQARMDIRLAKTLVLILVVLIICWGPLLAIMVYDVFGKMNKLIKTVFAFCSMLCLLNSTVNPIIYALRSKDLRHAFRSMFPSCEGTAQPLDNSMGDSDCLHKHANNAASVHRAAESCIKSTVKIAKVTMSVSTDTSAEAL
Chain of Cannabinoid receptor 1 (Mus musculus) (P47746 whole entry): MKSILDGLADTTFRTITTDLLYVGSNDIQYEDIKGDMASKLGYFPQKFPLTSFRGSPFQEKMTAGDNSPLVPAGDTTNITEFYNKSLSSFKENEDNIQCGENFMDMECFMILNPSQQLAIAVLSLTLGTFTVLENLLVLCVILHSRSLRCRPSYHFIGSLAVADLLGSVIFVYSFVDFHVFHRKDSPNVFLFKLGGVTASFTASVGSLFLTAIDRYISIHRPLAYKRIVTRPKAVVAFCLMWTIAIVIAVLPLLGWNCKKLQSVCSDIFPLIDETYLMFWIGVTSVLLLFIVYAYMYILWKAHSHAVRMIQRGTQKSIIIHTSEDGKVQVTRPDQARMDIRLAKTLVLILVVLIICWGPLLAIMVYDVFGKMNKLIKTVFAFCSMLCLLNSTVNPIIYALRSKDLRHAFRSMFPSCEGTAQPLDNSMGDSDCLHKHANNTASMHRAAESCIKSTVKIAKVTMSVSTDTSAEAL
Chain of Cannabinoid receptor 2 (P34972 whole entry): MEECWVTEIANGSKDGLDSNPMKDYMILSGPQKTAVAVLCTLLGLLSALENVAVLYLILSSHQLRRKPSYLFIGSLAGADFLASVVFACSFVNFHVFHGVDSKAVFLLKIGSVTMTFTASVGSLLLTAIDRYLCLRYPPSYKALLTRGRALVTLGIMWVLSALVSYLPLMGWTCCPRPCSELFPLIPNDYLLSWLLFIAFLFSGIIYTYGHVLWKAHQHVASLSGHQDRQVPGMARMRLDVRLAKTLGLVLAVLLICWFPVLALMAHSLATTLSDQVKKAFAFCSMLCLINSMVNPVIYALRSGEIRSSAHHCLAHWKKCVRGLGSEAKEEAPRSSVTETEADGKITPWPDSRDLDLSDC

As usually defined, the IC50 is the point on the concentration scale where inhibition reaches its midpoint. As a reminder, the EC50 is the midpoint of the concentration-response curve. As to `Cc1ccc(C(=O)Nc2cccc(F)c2)cc1S(=O)(=O)N1CCCCC1`, the IC50 in data set [1] is 1260 nM. The EC50 in data set [2] was greater than 10000 nM.

For the compound `Cc1ccc(C(=O)Nc2ccccc2)cc1S(=O)(=O)N1CCCCC1`, the 50% inhibitory concentration (IC50) in data set [1] is 3160 nM. The concentration for a half-maximal effect (EC50) in [2] was greater than 10000 nM.

In the case of `O=C(Nc1ccccc1O)c1ccc(Cl)c(S(=O)(=O)N2CCCCCC2)c1`, in data set [1], the IC50 is 200 nM. Also, the EC50 in data set [2] is 1260 nM.

On to `Cc1ccc(NC(=O)c2ccccc2Oc2ccccc2)cc1S(=O)(=O)N1CCOCC1`, for which, in data set [1], the IC50 is 2000 nM. Moreover, the EC50 in data set [2] is greater than 10000 nM.

With `O=C(Oc1cccc2cccnc12)c1cccc(S(=O)(=O)N2CCCCCC2)c1`, in data set [1], the IC50 is 50.1 nM. In [2], the EC50 was 200 nM.

As for `COc1ccc(C(=O)Oc2cccc3cccnc23)cc1S(=O)(=O)N1CCOCC1`, the IC50 in data set [1] is 39.8 nM. For the same compound, in data set [2], the EC50 was 398 nM.

Broadly, the Ki is a dissociation constant, usually derived from enzyme kinetics or from competition with a known ligand. What is called inhibition is the relative decrease from the control value, in per cent. On to `Cc1ccc(C(=O)Oc2cccc3cccnc23)cc1S(=O)(=O)N1CCCCC1`, for which, in data set [3], the Ki was 25.1 nM. Further, in data set [4], the inhibition worked out at 87.3%. Also, the IC50 in [1] is 0.794 nM. Further, the Activity in data set [5] was -1%; in data set [6], -50%; in data set [7], -53%; in [8] it was “Toxic”; in [9], -71%; in [11], -54%. Further, the Activity in data set [12] was -1%; in data set [13], -15%; in data set [14] it was -59%. Besides, the logSI in data set [10] is 1. Also, the EC50 in data set [2] is 10 nM. In data set [15], the pD2 came to 6.42.

For `O=C(Nc1ccc(Cl)c(S(=O)(=O)N2CCOCC2)c1)c1ccccc1Cl`, the IC50 in data set [1] was 1580 nM. For the same compound, in data set [2], the EC50 was greater than 10000 nM.

For `Cc1ccc(C(=O)Oc2ccccc2Br)cc1S(=O)(=O)N1CCOCC1`, in data set [1], the IC50 is 31.6 nM. Besides, the EC50 in data set [2] was 398 nM.

`Cc1ccc(NC(=O)c2cccc(C#N)c2)cc1S(=O)(=O)N1CCOCC1`: the IC50 in data set [1] was 1580 nM. In [2], the EC50 is 5010 nM.

With `Cc1ccc(NC(=O)c2ccc(C)c(S(=O)(=O)N3CCCCC3)c2)cc1`, the IC50 in data set [1] was 7940 nM. Also, the concentration giving a half-maximal response (EC50) in data set [2] is greater than 10000 nM.

Take `O=C(Nc1ccc(Cl)c(S(=O)(=O)N2CCOCC2)c1)c1ccccc1`: the IC50 in data set [1] is 3980 nM. In addition, in [2], the EC50 is 631 nM.

Turning to `Cc1ccc(C(=O)O)cc1S(=O)(=O)N1CCCCC1`, the 50% inhibitory concentration (IC50) in data set [1] is greater than 10000 nM. In [2], the EC50 was greater than 10000 nM.

As for `O=C(Oc1cccc2cccnc12)c1cccc(S(=O)(=O)N2CCCC2)c1`, the IC50 in data set [1] is 158 nM. For the same compound, the EC50 in data set [2] is 631 nM.

Consider `Nc1cccc(NC(=O)c2cccc(S(=O)(=O)N3CCCCC3)c2)c1`, for which the IC50 in data set [1] was 5010 nM. The EC50 in data set [2] is greater than 10000 nM.

As to `Cc1ccc(C(=O)Nc2ccccc2)cc1S(=O)(=O)N1CCCC1`, the IC50 in data set [1] is 6310 nM. Also, in data set [2], the EC50 is greater than 10000 nM.

For orientation: ED50 means the dose at which the effect has come halfway, by size or by number of responders. For `Cc1c(C(=O)c2cccc3ccccc23)c2cccc3c2n1[C@H](CN1CCOCC1)CO3` [WIN-552122], the Activity result in data set [16] and in data set [17] was “Toxic” in each case. For the same compound, it took a dose of 0.21 mg/kg to reach the 50% effect level in data set [18] (ED50).

For the compound `Cc1ccc(C(=O)Nc2cccc3cnccc23)cc1S(=O)(=O)N1CCCCC1`, in [1], the IC50 is 1260 nM. Further, the EC50 in data set [2] is 6310 nM.

Turning to `O=C(Nc1ccc(Cl)c(S(=O)(=O)N2CCOCC2)c1)c1cccc2ccccc12`, the IC50 in data set [1] was 398 nM. The EC50 in data set [2] is 794 nM.

Turning to `Cc1ccc(NC(=O)c2ccc(C)c(S(=O)(=O)N3CCCCC3)c2)nc1`, in [1], the IC50 was 3160 nM. Also, the EC50 in [2] was greater than 10000 nM.

For the compound `Cc1ccc(C(=O)Oc2cccc3cccnc23)cc1S(=O)(=O)N1CCOCC1`, the IC50 in data set [1] was 1.26 nM. Besides, the EC50 in data set [2] was 12.6 nM.

For `COc1ccccc1OC(=O)c1ccc(C)c(S(=O)(=O)N2CCOCC2)c1`, the IC50 in data set [1] was 3160 nM. In addition, the EC50 in [2] is 63.1 nM.

For the compound `COc1ccccc1NC(=O)c1cccc(S(=O)(=O)N2CCCCC2)c1`, the IC50 in data set [1] was greater than 10000 nM.

Turning to `O=C(Oc1cccc2cccnc12)c1cccc(S(=O)(=O)N2CCCCC2)c1`, the IC50 in data set [1] was 15.8 nM. Besides, the EC50 in data set [2] is 50.1 nM.
